Source: patent publication US20250186597A1, “TARGETED IMMUNE ACTIVATION WITH IL-18 IMMUNOCYTOKINES” (BRIGHT PEAK THERAPEUTICS AG, priority 2023, published 2025)
pIC50: −log10 of the molar value.

Tested on: PD-1positive transduced NK-92 cells
Assay: IL-18BP mediated inhibition of IFN gamma secretion in PD-1 positive transduced NK-92 cells (Example 18)
Format: cell-based, human
Experimental: To characterize the resistance of anti-PD1-IL18 immunocytokines (IC) on PD-1 positive cells, the NK-92 cell line was used to generate a PD-1 expressing cell line and furthermore, to measure the inhibition of IFN[…] release upon incubation with IL-18 variants and ICs in the presence of increasing quantities of human IL-18BP.
On the day of experiment, parental PD-1^negative and PD-1^positive transduced cells were harvested and washed with PBS 1× and resuspended in medium (w/o IL-2) containing 1 ng/ml of recombinant human Interleukin-12 (SinoBiologicals, Cat #CT011-H08H). After counting, cells were seeded at 100 000 cells/well in a 384 well culture plate and incubated at 37° C./5% CO2. When indicated, cells were preincubated with anti-PD-1 antibody LZM-009 at 17 uM during 30 min at 37° C. […]
After 16-20 h incubation at 37° C./5% CO2, 5 μl of supernatant were carefully transferred to a 384 microwell OptiIPlate (Perkin Elmer; Cat #6007270) and Interferon-gamma (IFNγ) levels measured using the Human IFNγ AlphaLISA Assay Kit (Perkin Elmer, Cat #AL217C). […] AlphaLISA signal was then measured on an Enspire plate reader (Perkin Elmer) using 680 and 615 nm as excitation and emission wavelengths respectively. Half maximal inhibitory concentration (IC50) was calculated based on a variable slope, four parameter analysis using GraphPad PRISM software.

SEQ ID NO: 1: Native sequence of human IL-18 (bioactive form) [reference compound]
pIC50 (IL-18BP-mediated inhibition of IFNγ secretion, IL-18 analyte 1 nM): 8.57
PD-1^pos/PD-1^neg IC50 ratio (NK-92 cells): 1.2
